Test results reported in patent US11331271B2, “Buccal, sublingual and intranasal delivery of fospropofol” (The Johns Hopkins University, priority 2016, dated 2022).

Columns and labels:
[1] = Buccal delivery of fospropofol in monkeys: plasma and CSF levels; format: in vivo, monkey
Protocol: In this example, monkeys were dosed with 50 mg fospropofol by buccal administration. Plasma and CSF were collected before treatment (graphed as t=0), 15 minutes, 30 minutes, 1 hr and 2 hr. Samples were analyzed for propofol and fospropofol by LCMS.

[2] = format: in vitro ADME
Protocol: The SPE cartridges were conditioned by gravity with methanol and 1.0 M ammonium acetate solution in water. The plasma samples with internal standard were loaded on the cartridges, washed with water and 10% methanol/water and eluted with methanol. The tubes were then evaporated under nitrogen and the residues reconstituted with 50/50 methanol/25 mM ammonium acetate in deionized water. The sample extract was then injected onto a reversed phase HPLC Zorbax Eclipse XDB-C18 column. The separated analytes were detected using tandem mass spectrometry (MS/MS) detection. […] The assays were linear with correlation coefficient of (R^2)>0.99 over the range of 10-2,000 ng/mL for rat plasma and 5-1,000 ng/mL for human plasma.
In brief, 4-[tert-octyl] phenol, (internal standard) was added to the plasma samples (0.05 mL for rat or 0.2 mL for human) and extracted using a 3M Empore C-18-SD 4 mm SPE cartridge (Millipore, Billerica, Mass., USA). […] The final eluants (˜0.3 mL) were diluted with 0.3 mL of water, and injected onto an HPLC system equipped with a C-18 analytical column (5 μm, 150×3.9 mm) and fluorescence detector set at excitation and emission wave lengths of 275 and 310 nm, respectively. […] All rat and human study samples in this study were analyzed without exceeding the stability sample integrity during validation of the methods.

[3] = Human Study 2: single ascending oral dose, plasma pharmacokinetics; format: in vivo
Protocol: In human study 1, fospropofol disodium was formulated as a sterile aqueous solution at a concentration of 20 mg/mL. Each vial provided contained 20 mL of solution, suitable for intravenous injection. Fospropofol was administered as a single dose of 400 mg orally, directly into the duodenum by gastroscopy or intravenously over 10 min. In human study 2, fospropofol disodium in capsules (200 mg) or matching placebo was administered orally.
A second single ascending dose study was subsequently performed to assess the safety, tolerability, and pharmacokinetics of oral administration of fospropofol as a capsule. This was a double-blind, randomized, crossover, placebo-controlled, single ascending dose study. Ten healthy volunteers were enrolled, 6 males and 4 females between 18 and 45 years of age inclusive with a body mass index between 18 and 28 kg/m^2. Each subject received four ascending oral doses of fospropofol disodium (200, 600, 1,000 and 1,200 mg) and one of placebo. Placebo was administered randomly, in one of the five periods. Subjects stayed in the clinical research unit over 3 days per treatment for five consecutive treatments. […] Pharmacokinetic parameters, safety and pharmacodynamic effect were assessed in a manner similar to that in Study 1 described above. […]

| Compound | time of fospropofol peak in plasma ([1]; 50 mg buccal) [min] | fospropofol plasma level by 2 hr ([1]; 50 mg buccal, 2 hr) | concentration at 15 min ([1]; monkey, CSF, other: buccal, 50 mg buccal, 15 minutes, read-out: CSF fospropofol, one high point) [nM] | Cmax ([1]; monkey, plasma, 50 mg buccal) [nM] | time stable at −20° C. in human plasma [2] [days] | fospropofol exposure vs dose ([3]; PO capsules 200-1,200 mg) | highest propofol level in plasma ([1]; 50 mg fospropofol buccal, at 2 hours) | propofol in CSF ([1]; 50 mg fospropofol buccal, limit of quantitation 10 nM) | propofol exposure vs dose ([3]; PO fospropofol capsules 200-1,200 mg) |
| --- | --- | --- | --- | --- | --- | --- | --- | --- | --- |
| CC(C)c1cccc(C(C)C)c1OCOP(=O)(O)O [fospropofol] | 30 to 60 | below the limit of quantification | ~850 | ~150 | 464 | dose related increase | – | – | – |
| CC(C)c1cccc(C(C)C)c1O [propofol, 2,6-diisopropylphenol] | – | – | – | – | 347 | – | about 500 nM | only 2 samples are above the limit of quantitation | dose related increase |
